In patent US8178658B2 (Dow AgroSciences, LLC, priority 2008, dated 2012):

Experiments:
[1] = test system: beet armyworm (BAW; Spodoptera exigua: Lepidoptera); assay: 128-well diet tray assay on beet armyworm (BAW 50); format: in vivo; settings: 128-well diet tray assay, second instar BAW larvae, mortality class; for BAW 50 ug/cm2: 50 μg/cm^2 of test compound on diet; for pest or weed control at 50 µg/cm2, 50 µg/cm2: Spodoptera exigua, 144 h, 50 μg/cm2 of test compound on diet, read-out: BAW 50 ug/cm2
In short: (§1)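 Spodoptera exigua eggs on artificial diet in 96-well plates, surface-treated with 12 μg compound in DMSO-acetone-water; dark, 29° C, mortality at 6 d, six replicates. 128-well trays: second-instar larvae on diet treated at 50 μg/cm^2, 25° C, 14:10 light-dark, six days, mortality averaged over eight wells.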

[2] = test system: beet armyworm (BAW; Spodoptera exigua: Lepidoptera); assay: 96-well microtiter plate-based high throughput (HTS) diet bioassay on beet armyworm (BAW HTS); format: in vivo; settings: BAW eggs, 12 μg test compound per well, mortality at 6 d post-treatment, mortality class; for pest or weed control at 12 µg/well, 12 µg/well: Spodoptera exigua, 144 h, read-out: BAW HTS
In short: as §1

[3] = 96-well microtiter plate HTS diet assay

Row | Compound | BAW 50 ug/cm2 [1] | BAW HTS ([2]; 96-well HTS diet bioassay) | BAW HTS [2, 3] | pest or weed control at 50 µg/cm2, 50 µg/cm2 [1] | pest or weed control at 12 µg/well, 12 µg/well ([2]; 96-well HTS diet bioassay)
1 | COC1C(C)OC(ON=Cc2ccc(-c3nn(-c4ccc(F)cc4F)c(=O)[nH]3)cc2)C(OC)C1OC (stereo not drawn) [Compound 100] | A (the compound was tested and at least 50 percent mortality was observed) | B (either (1) the compound was tested and less than 50 percent mortality was observed or (2) the compound was not tested) | B (either (1) the compound was tested and less than 50 percent mortality was observed or (2) the compound was not tested) | – | –
2 | COC1C(C)OC(ON=Cc2ccc(-c3nn(-c4ccc(OC(F)(F)F)cc4)c(=O)[nH]3)cc2)C(OC)C1OC (stereo not drawn) [Compound 101] | A (the compound was tested and at least 50 percent mortality was observed) | B (either (1) the compound was tested and less than 50 percent mortality was observed or (2) the compound was not tested) | B (either (1) the compound was tested and less than 50 percent mortality was observed or (2) the compound was not tested) | – | –
3 | COC1C(C)OC(ON=Cc2ccc(-c3ncn(-c4ccc(Br)cc4)n3)cc2)C(OC)C1OC (stereo not drawn) [Compound 102] | B (either (1) the compound was tested and less than 50 percent mortality was observed or (2) the compound was not tested) | B (either (1) the compound was tested and less than 50 percent mortality was observed or (2) the compound was not tested) | B (either (1) the compound was tested and less than 50 percent mortality was observed or (2) the compound was not tested) | – | –
4 | CO[C@@H]1[C@@H](OC)[C@H](C)O[C@@H](ON=Cc2ccc(-c3ncn(-c4ccc([S+]([O-])C(F)(F)F)cc4)n3)cc2)[C@@H]1OC (stereo partly drawn) [Compound 103, 4-[1-(4-trifluoromethanesulfinylphenyl)-1H-[1,2,4]triazol-3-yl]-benzaldehyde O-((2S,3R,4R,5S,6S)-3,4,5-trimethoxy-6-methyl-tetrahydropyran-2-yl)-oxime] | A (the compound was tested and at least 50 percent mortality was observed) | – | B (either (1) the compound was tested and less than 50 percent mortality was observed or (2) the compound was not tested) | > 50% | < 50%
5 | CO[C@@H]1[C@@H](OC)[C@H](C)O[C@@H](ON=Cc2ccc(-c3ncn(-c4ccc(S(=O)(=O)C(F)(F)F)cc4)n3)cc2)[C@@H]1OC [Compound 104, 4-[1-(4-trifluoromethanesulfonylphenyl)-1H-[1,2,4]triazol-3-yl]-benzaldehyde O-((2S,3R,4R,5S,6S)-3,4,5-trimethoxy-6-methyl-tetrahydropyran-2-yl)-oxime] | A (the compound was tested and at least 50 percent mortality was observed) | – | B (either (1) the compound was tested and less than 50 percent mortality was observed or (2) the compound was not tested) | > 50% | < 50%
6 | COC1C(C)OC(ON=Cc2ccc(-c3ncn(-c4ccc(SC(F)(F)C(F)(F)F)cc4)n3)cc2)C(OC)C1OC (stereo not drawn) [Compound 105] | A (the compound was tested and at least 50 percent mortality was observed) | B (either (1) the compound was tested and less than 50 percent mortality was observed or (2) the compound was not tested) | B (either (1) the compound was tested and less than 50 percent mortality was observed or (2) the compound was not tested) | – | –
7 | CCCOC1C(OC)C(C)OC(ON=Cc2ccc(-c3ncn(-c4ccc(OC(F)(F)C(F)(F)F)cc4)n3)cc2)C1OC (stereo not drawn) [Compound 106] | A (the compound was tested and at least 50 percent mortality was observed) | B (either (1) the compound was tested and less than 50 percent mortality was observed or (2) the compound was not tested) | B (either (1) the compound was tested and less than 50 percent mortality was observed or (2) the compound was not tested) | – | –
8 | CCCOC1C(OC)C(C)OC(ON=Cc2ccc(-c3ncn(-c4ccc(C(F)(F)F)cc4)n3)cc2)C1OC (stereo not drawn) [Compound 107] | A (the compound was tested and at least 50 percent mortality was observed) | A (the compound was tested and at least 50 percent mortality was observed) | A (the compound was tested and at least 50 percent mortality was observed) | – | –
9 | CCCOC1C(OC)C(C)OC(ON=Cc2ccc(-c3ncn(-c4ccc(C(F)(F)C(F)(F)F)cc4)n3)cc2)C1OC (stereo not drawn) [Compound 108] | A (the compound was tested and at least 50 percent mortality was observed) | B (either (1) the compound was tested and less than 50 percent mortality was observed or (2) the compound was not tested) | B (either (1) the compound was tested and less than 50 percent mortality was observed or (2) the compound was not tested) | – | –
10 | CCCCOC1C(OC)C(C)OC(ON=Cc2ccc(-c3ncn(-c4ccc(OC(F)(F)C(F)(F)F)cc4)n3)cc2)C1OC (stereo not drawn) [Compound 109] | A (the compound was tested and at least 50 percent mortality was observed) | A (the compound was tested and at least 50 percent mortality was observed) | A (the compound was tested and at least 50 percent mortality was observed) | – | –
11 | CCCOC1C(OC)C(C)OC(ON=Cc2ccc(-c3ncn(-c4ccc(C(F)(F)C(F)(F)C(F)(F)F)cc4)n3)cc2)C1OC (stereo not drawn) [Compound 110] | A (the compound was tested and at least 50 percent mortality was observed) | B (either (1) the compound was tested and less than 50 percent mortality was observed or (2) the compound was not tested) | B (either (1) the compound was tested and less than 50 percent mortality was observed or (2) the compound was not tested) | – | –
12 | CCOC1C(OC)C(C)OC(ON=Cc2ccc(-c3ncn(-c4ccc(OS(=O)(=O)C(F)(F)F)cc4)n3)cc2)C1OC (stereo not drawn) [Compound 112] | A (the compound was tested and at least 50 percent mortality was observed) | B (either (1) the compound was tested and less than 50 percent mortality was observed or (2) the compound was not tested) | B (either (1) the compound was tested and less than 50 percent mortality was observed or (2) the compound was not tested) | – | –
13 | CCCO[C@@H]1[C@@H](OC)[C@@H](OC)[C@H](O/N=C/c2ccc(-c3ncn(-c4ccc(OC(F)(F)C(F)(F)F)cc4)n3)cc2)O[C@H]1C [Compound 113, 4-[1-(4-pentafluoroethyloxy-phenyl)-1H-[1,2,4]triazol-3-yl]-benzaldehyde, O-((2S,3R,4R,5S,6S)-3,4-dimethoxy-6-methyl-5-propoxy-tetrahydropyran-2-yl)-oxime] | A (the compound was tested and at least 50 percent mortality was observed) | – | B (either (1) the compound was tested and less than 50 percent mortality was observed or (2) the compound was not tested) | > 50% | < 50%
14 | CCOC1C(OC)C(C)OC(ON=Cc2ccc(-c3ncn(-c4ccc(C(F)(F)F)cc4Cl)n3)cc2)C1OC (stereo not drawn) [Compound 115] | A (the compound was tested and at least 50 percent mortality was observed) | B (either (1) the compound was tested and less than 50 percent mortality was observed or (2) the compound was not tested) | B (either (1) the compound was tested and less than 50 percent mortality was observed or (2) the compound was not tested) | – | –
15 | CCOC1C(OC)C(C)OC(ON=Cc2ccc(-c3ncn(-c4ccc(C(F)(F)F)cn4)n3)cc2)C1OC (stereo not drawn) [Compound 116] | A (the compound was tested and at least 50 percent mortality was observed) | B (either (1) the compound was tested and less than 50 percent mortality was observed or (2) the compound was not tested) | B (either (1) the compound was tested and less than 50 percent mortality was observed or (2) the compound was not tested) | – | –
16 | CCOC1C(OC)C(C)OC(ON=Cc2ccc(-c3ncn(-c4ccc(Cl)nn4)n3)cc2)C1OC (stereo not drawn) [Compound 117] | B (either (1) the compound was tested and less than 50 percent mortality was observed or (2) the compound was not tested) | B (either (1) the compound was tested and less than 50 percent mortality was observed or (2) the compound was not tested) | B (either (1) the compound was tested and less than 50 percent mortality was observed or (2) the compound was not tested) | – | –
17 | CCCOC1C(OC)C(C)OC(ON=Cc2ccc(-c3ncn(-c4ccc(C(F)(F)F)cn4)n3)cc2)C1OC (stereo not drawn) [Compound 118] | A (the compound was tested and at least 50 percent mortality was observed) | B (either (1) the compound was tested and less than 50 percent mortality was observed or (2) the compound was not tested) | B (either (1) the compound was tested and less than 50 percent mortality was observed or (2) the compound was not tested) | – | –
18 | COCC1OC(ON=Cc2ccc(-c3ncn(-c4ccc(OC(F)(F)C(F)(F)F)cc4)n3)cc2)C(OC)C(OC)C1OC (stereo not drawn) [Compound 119] | A (the compound was tested and at least 50 percent mortality was observed) | A (the compound was tested and at least 50 percent mortality was observed) | A (the compound was tested and at least 50 percent mortality was observed) | – | –
19 | CCOC1C(OC)C(C)OC(ON=Cc2ccc(-c3ncn(-c4ccc(OC(F)(F)F)cc4)n3)cc2)C1OC (stereo not drawn) [Compound 120] | A (the compound was tested and at least 50 percent mortality was observed) | A (the compound was tested and at least 50 percent mortality was observed) | A (the compound was tested and at least 50 percent mortality was observed) | – | –
